Data as given in US6624140B1, “Synthetic peptides with antimicrobial and endotoxin neutralizing properties for management of the sepsis syndrome” (Academisch Ziekenhuis Bij de Universiteit van Amsterdam …, priority 1997, dated 2003).
No end group written: not given here.

What was measured:
Staphylococcus aureus = test: Bactericidal activity in liquid culture, S. aureus; assay type: cell-based; conditions: for % bacteria killed: 10^7 S. aureus bacteria/ml LB medium 37° C., concentration effective dose 3 (M^−6); for effect on cell-density of Gram-positive bacterial cultures: in words
Procedure: (§1) FIGS. 1A and 1B. The effect of synthetic peptides on the survival of E. coli 0111:B4 (panel A) or S. aureus (panel B). Logarithmically growing bacterial cells at a density of 10^7 cells/ml in Luria-Bertani (LB) medium were incubated with synthetic peptides at concentrations of 3, 5 and 7 μg/ml (1, 2 and 3 μM) at 37° C. for 1 h and the residual cell density expressed as a percentage of the value obtained from bacterial cultures without added peptides.
(§2) A peptide encompassing a selected LPS-binding domain from a well characterized human antiendotoxin protein, known as bactericidal/permeability increasing protein (BPI), from amino acids 85 to 102, denoted as BPI(85-102), was included for a direct comparison of the efficacy of the endotoxin-binding domain of a naturally occurring protein and the synthetic peptides of the invention. The amino acid sequence of the BPI(85-102) peptide is:
(§3) The BPI(85-102) reference peptide was synthesized as previously described for peptides of the invention and provided with a C-terminal Cys residue for the purpose of biotinylation as previously described. […] Incubation of various concentrations of the synthetic peptides according to the invention for a limited time period on the survival of both types of bacteria again illustrated their potent anti-microbial activity as opposed to that of the BPI(85-102) peptide (FIG. 1) with the sequence corresponding to that of the potential LPS binding domain of the native BPI protein. This is indicative of a broad specificity of the synthetic peptides, in keeping with the general bactericidal properties of this class of linear amphipathic α-helical peptides. […] The B2 residue in the N-terminal repetitive sequence element in each instance, instead of an aromatic amino acid residue, as specified by the formula of the invention, was replaced with an Ala residue and the hydrophobic (C2)n element made hydrophilic by substitution with Lys and Cys residues.

[1] = tested on: Escherichia coli serotype 0111:B4; test: Bactericidal activity in liquid culture, E. coli 0111:B4; assay type: cell-based; conditions: for % bacteria killed: 10^7 E. coli 0111:B4 bacteria/ml LB medium at 37° C., concentration effective dose 3 (M^−6); for effect on cell-density of Gram-negative bacterial cultures: in words
Procedure: as §1, §2, §3

[2] = Turbidity assay of endotoxin complexation; assay type: binding, Escherichia coli; conditions: for avidity order (degree of insoluble peptide-endotoxin complex formation): 2-fold molar excess of synthetic peptide
Procedure: FIG. 2. Endotoxin complexation activity of the synthetic peptides. Peptides at concentrations of 100 to 600 μg/ml were incubated with E. coli D31m4 Re or J5 LPS at 100 μg/ml in a total volume of 100 μl pyrogen-free phosphate buffered saline (PBS) in plastic ELISA microtiter plates for 30 min at 23° C. The turbidity produced by the insoluble peptide-endotoxin complexes was measured at 340 nm. The values represent the mean of three determinations and were corrected for controls containing the same concentrations of endotoxin or peptide.
Double-immunodiffusion of the peptides of the invention against ‘rough’ R-type E. coli D31m4 Re-LPS (List Biological Laboratories Inc., Calif.) or the structurally more complex ‘smooth’ S-type E. coli 0111:B4 LPS (Sigma Chemical Co., Rockford, Ill.) was performed in 0.8% (w/v) agarose containing 50 mM Tris and 0.1% (w/v) Triton X100, pH 7.5. for 16 h at 20° C. PmB and BPI(85-102) were included as control compounds for comparative purposes. The microprecipitates formed were visualized by Coommassie brilliant blue staining. […] Since the amount of precipitate formed is a function of valency, the peptides of the invention appear to be capable of a high degree of intermolecular binding of LPS molecules via the Lipid A moieties. […] A turbidity assay was employed for a direct comparison of the endotoxin-binding activity or avidity of selected synthetic peptides according to the invention using the ‘rough’ serotypes E. coli Re or Rc (J5) LPS. PmB and BPI(85-102) were included as control compounds for comparative purposes. The degree of precipitation of endotoxin by the synthetic peptides according to the invention was determined by measurement of the optical density of insoluble complexes formed at 340 nm (FIG. 2). In most instances optimal complexation of Re or J5 LPS by the synthetic peptides of the invention was evident at a molar ratio of peptide to endotoxin of 1 to 2. The control BPI(85-102) peptide was required at a 4-fold molar excess for approximately the same degree of complexation. […] There was no significant difference between complexation of Re or the structurally more complex J5-LPS by the synthetic peptides. […] The Lipid A binding affinity of the synthetic peptides were directly compared in a solid-state endotoxin-binding assay. Binding characteristics of biotinylated derivatives of the synthetic peptides BP1, BP2, BP2.1 and the control peptide BPI(85-102) were determined on ELISA microtiter plates coated with E. coli D31m4 Lipid A. Specific binding of the biotinylated peptides to the immobilized Lipid A was determined by development with Streptavidin-HRP and 3, 5, 3′, 5′ tetra-methylbenzidine (TMB) substrate and expressed as the corrected optical density at 450 nm. […] The affinity of the novel synthetic peptide BP2 for endotoxin of increasing complexity as well as the effect of plasma on binding was examined with the use of the ELISA microplate assay.

Row | Substance | % bacteria killed (Staphylococcus aureus) [%] | effect on cell-density of Gram-positive bacterial cultures (Staphylococcus aureus) | % bacteria killed [1] [%] | effect on cell-density of Gram-negative bacterial cultures [1] | avidity order (degree of insoluble peptide-endotoxin complex formation) [2] | molar excess required for approximately the same degree of complexation ([2]; Re or J5 LPS) [fold]
1 | Ile-Lys-Ile-Ser-Gly-Lys-Trp-Lys-Ala-Gin-Lys-Arg-Phe-Leu-Lys-Met-Ser-Gly-(Cys) (IKISGKWKAQKRFLKMSGC; listed as Homo sapiens) [BPI(85-102), reference compound] | 0 | no effect | 31 | slight effect | BP2.1>BP2.2>BP2>BP1>PmB >BPI(85-102) | 4
2 | GRLRKKWKAFKKFLKILAC [BP1] | 34 | dose-dependent reduction | 88 | dose-dependent reduction | BP2.1>BP2.2>BP2>BP1>PmB >BPI(85-102) | 
3 | GKWKLFKKAFKKFLKILAC-OH [BP2, Gly-Lys-Trp-Lys-Leu-Phe-Lys-Lys-Ala-Phe-Lys-Lys-Phe-Leu-Lys-Ile-Leu-Ala-Cys] |  | dose-dependent reduction |  | dose-dependent reduction | BP2.1>BP2.2>BP2>BP1>PmB >BPI(85-102) | 
